Measurements reported in patent publication US10577362B2, “Substituted 2, 4-diamino-quinoline derivatives for use in the treatment of proliferative diseases” (GENOSCIENCE PHARMA, priority 2016, dated 2020).
pEC50: −log10 of the molar value.

Key:
[1] = test system: HepG2 (hepatocellular carcinoma) cell line; experiment: CellTiter-Glo luminescent cell viability assay, HepG2; type: cell-based, human; conditions: Homo sapiens; for viability at 4 µM / viability at 10 µM: HepG2, HepG, 72 h; for viability at 4 µM: compound at 4 μM; for viability at 10 µM: compound at 10 μM; for pEC50: HepG2 cell line, 72 h incubation, CellTiter-Glo, read-out: EC50, growth inhibition of HepG2
Procedure, shortened: (§1)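 72 h compound exposure, 37 °C, 5% CO2, 10% FBS medium; ATP luminescence read after 30 min RT equilibration. Viability as % of H2O/DMSO diluent control; EC50 = dose giving 50% of control signal. Duplicate points minimum.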

[2] = test system: Huh7 (hepatocellular carcinoma) cell line; experiment: CellTiter-Glo luminescent cell viability assay, Huh7; type: cell-based, human; conditions: Homo sapiens, Huh-7; for viability at 4 µM: Huh7, compound at 4 μM; for viability at 4 µM / viability at 10 µM: 72 h; for viability at 10 µM: Huh7, compound at 10 μM; for pEC50: Huh7 cell line, 72 h incubation, CellTiter-Glo, read-out: EC50, growth inhibition of Huh7
Procedure, shortened: as §1

[3] = test system: MOLM-14 (acute myeloid leukemia) cell line; experiment: CellTiter-Glo luminescent cell viability assay, MOLM-14; type: cell-based, human; conditions: Homo sapiens; for viability at 4 µM: MOLM-14, compound at 4 μM; for viability at 4 µM / viability at 10 µM: 72 h; for viability at 10 µM: MOLM-14, compound at 10 μM; for pEC50: MOLM-14 cell line, 72 h incubation, CellTiter-Glo, read-out: EC50, growth inhibition of MOLM-14
Procedure, shortened: as §1

[4] = test system: A375 (malignant melanoma) cell line; experiment: CellTiter-Glo luminescent cell viability assay, A375; type: cell-based, human; conditions: Homo sapiens, A-375; for viability at 4 µM: A375, compound at 4 μM; for viability at 4 µM / viability at 10 µM: 72 h; for viability at 10 µM: A375, compound at 10 μM; for pEC50: A375 cell line, 72 h incubation, CellTiter-Glo, read-out: EC50, growth inhibition of A375
Procedure, shortened: (§2)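 Luminescent signal, normalised to diluent-treated cultures, defines % viability; EC50 is the concentration lowering it to 50%. Cells had been exposed to compound for 72 h at 37 °C in medium with 10% FBS, at a constant H2O or DMSO percentage.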

[5] = test system: PANC-1 (prancreatic carcinoma) cell line; experiment: CellTiter-Glo luminescent cell viability assay, PANC-1; type: cell-based; conditions: Homo sapiens; for viability at 4 µM: PANC-1, 4 μM; for viability at 4 µM / viability at 10 µM: 72 h, % of signal of diluent-treated cultures; for viability at 10 µM: PANC-1, 10 μM; for pEC50: PANC-1 cell line, 72 h incubation, CellTiter-Glo, read-out: EC50 (growth inhibition assay of PANC-1 cell line)
Procedure, shortened: as §1

[6] = test system: 786-O (renal adenocarcinoma) cell line; experiment: CellTiter-Glo luminescent cell viability assay, 786-O; type: cell-based, human; conditions: Homo sapiens, 786-0; for viability at 4 µM / viability at 10 µM: 786-O, 72 h; for viability at 4 µM: compound at 4 μM; for viability at 10 µM: compound at 10 μM; for pEC50: 786-O cell line, 72 h incubation, CellTiter-Glo, read-out: EC50, growth inhibition of 786-O
Procedure, shortened: as §2

[7] = test system: HCT-116 (colorectal carcinoma) cell line; experiment: CellTiter-Glo luminescent cell viability assay, HCT-116; type: cell-based, human; conditions: Homo sapiens; for viability at 4 µM: HCT-116, compound at 4 μM; for viability at 4 µM / viability at 10 µM: 72 h; for viability at 10 µM: HCT-116, compound at 10 μM; for pEC50: HCT-116 cell line, 72 h incubation, CellTiter-Glo, read-out: EC50, growth inhibition of HCT-116
Procedure, shortened: as §2

pEC50 [1] | pEC50 [2] | pEC50 [3] | pEC50 [4] | pEC50 [6] | pEC50 [7] | Structure (SMILES) | viability at 4 µM [1] | viability at 10 µM [1] | viability at 4 µM [2] | viability at 10 µM [2] | viability at 4 µM [3] | viability at 10 µM [3] | viability at 4 µM [4] | viability at 10 µM [4] | viability at 4 µM [5] | viability at 10 µM [5] | viability at 4 µM [6] | viability at 10 µM [6] | viability at 4 µM [7] | viability at 10 µM [7] | other results
– | – | – | – | – | – | N#Cc1c(NCc2ccc(Cl)cc2)nc2ccccc2c1N1CCC(NC2CCCC2)C1 (stereo not shown) [Compound 134CN, 2-(4-chloro-benzylamino)-3-cyano-4-[3-(cyclopentyl-amino)pyrroli-din-1-yl]quinoline] | 101% | 81.3% | 85.3% | 70.5% | 100% | 89.5% | 79.9% | 29.1% | 99.4% | 91.7% | 92.8% | 64% | 88.5% | 50.6% | –
– | – | – | – | – | – | CC(C)(C)NC1CCN(c2c(C#N)c(NCc3ccco3)nc3ccccc23)CC1 [Compound 3302CN, 2-[(furan-2-ylmethyl)amino]-3-cyano-4-[4-(tert-butylamino)piperidin-1-yl]quinoline] | 83.3% | 57.5% | 76.6% | 40.1% | 82.3% | 67% | 81.6% | 14.3% | 95.8% | 82.3% | 86.1% | 48.1% | 57.4% | 10.8% | –
– | – | – | – | – | – | CN(C)C1CCN(c2c(C#N)c(NCc3ccc(Cl)cc3)nc3ccccc23)C1 (stereo not shown) [Compound 3202CN, 2-(4-chloro-benzylamino)-3-cyano-4-[3-(dimethylamino)pyrrolidin-1-yl]quinoline] | 104% | 81% | 91.1% | 61.5% | 98.7% | 82.6% | 84.5% | 70.5% | 96.1% | 81.5% | 92.9% | 74.7% | 93.7% | 62.4% | –
5.30 to 6.30 | 5.00 to 5.30 | 5.00 to 5.30 | 5.30 to 6.30 | 5.30 to 6.30 | 5.30 to 6.30 | Cc1cc(Nc2nc3ccccc3c(N3CCC(NC(C)(C)C)CC3)c2C#N)ccc1F [Compound 3250CN, 2-(3-methyl-4-fluorophenylamino)-3-cyano-4-[4-(tert-butylamino)piperidin-1-yl]quinoline] | 71% | 0.5% | 67% | 0.5% | 87.5% | 0.6% | 0.7% | 0.3% | 94.7% | 13.1% | 30.3% | 0.4% | 0.2% | 0.1% | pEC50 [5]: 5.00 to 5.30
5.30 to 6.30 | 5.30 to 6.30 | 5.00 to 5.30 | 5.30 to 6.30 | 5.00 to 5.30 | 5.30 to 6.30 | COc1ccc(CNc2nc3ccccc3c(N3CCC(NC(C)(C)C)CC3)c2C#N)cc1 [Compound 3290CN, 2-(4-methoxybenzylamino)-3-cyano-4-[4-(tert-butylamino)piperidin-1-yl]quinoline] | 75.5% | 0.7% | 80.2% | 1% | 76.4% | 7.4% | 57.6% | 0.8% | 95.7% | 38.3% | 74.1% | 2.7% | 43.8% | 0.7% | pEC50 [5]: 5.00 to 5.30
– | – | – | – | – | – | N#Cc1c(NCc2ccc(Cl)cc2)nc2ccccc2c1N1CCCC(N2CCOCC2)C1 (stereo not shown) [Compound 178CN, 2-(4-chlorobenzylamino)-3-cyano-4-[3-(morpholino)piperidin-1-yl]quinoline] | 101% | 97.5% | 95.3% | 81.9% | 123% | 106% | 95.5% | 90.2% | 100% | 96.6% | 99.6% | 88.9% | 95.7% | 77% | –
– | – | – | – | – | – | CN(C)C1CCCN(c2c(C#N)c(NCc3ccc(Cl)cc3)nc3ccccc23)C1 (stereo not shown) [Compound 3164CN, 2-(4-chlorobenzylamino)-3-cyano-4-[3-(dimethylamino)piperidin-1-yl]quinoline] | 101% | 52.9% | 91.9% | 51.1% | 113% | 74.6% | 89.2% | 39.3% | 98.7% | 69.6% | 97.1% | 64.1% | 91.2% | 38.4% | –
– | – | – | – | – | – | CC(C)(C)NC1CCN(c2c(C#N)c(Nc3cnccn3)nc3ccccc23)CC1 [Compound 3284CN, 2-(pyrazin-2-ylamino)-3-cyano-4-[4-(tertbutylamino)piperidin-1-yl]quinoline] | 90% | 68.4% | 95.3% | 79.2% | 102% | 78.3% | 88.3% | 64.9% | 96.3% | 69.4% | 89.8% | 61.9% | 83.4% | 27.4% | –
5.30 to 6.30 | 5.30 to 6.30 | 5.30 to 6.30 | – | 5.30 to 6.30 | 5.30 to 6.30 | CC(C)(C)NC1CCN(c2c(C#N)c(Nc3ccc(F)c(F)c3)nc3ccccc23)CC1 [Compound 3264CN, 2-(3,4-difluorophenylamino)-3-cyano-4-[4-(tert-butylamino)piperidin-1-yl]quinoline] | 0.5% | 0.3% | 11.7% | 0.5% | 0.4% | 0.5% | 12.8% | 0.4% | 78.1% | 2.4% | 12.7% | 0.6% | 0.3% | 0.3% | –
5.30 to 6.30 | 5.00 to 5.30 | 5.00 to 5.30 | 5.30 to 6.30 | 5.00 to 5.30 | 5.30 to 6.30 | CC(C)NC1CCCN(c2c(C#N)c(NCc3ccc(Cl)cc3)nc3ccccc23)C1 (stereo not shown) [Compound 3160CN, 2-(4-chlorobenzylamino)-3-cyano-4-[3-(isopropylamino)piperidin-1-yl]quinoline] | 62.1% | 0.5% | 80.8% | 0.5% | 88.7% | 0.6% | 18.2% | 0.4% | 96.1% | 1.2% | 65.2% | 0.5% | 57.7% | 0.4% | pEC50 [5]: 5.00 to 5.30
5.30 to 6.30 | 5.30 to 6.30 | 5.30 to 6.30 | 5.30 to 6.30 | 5.30 to 6.30 | 5.30 to 6.30 | CC(C)NC1CCN(c2c(C#N)c(NCc3ccc(Cl)cc3)nc3ccccc23)CC1 [Compound 3174CN, 2-(4-chlorobenzylamino)-3-cyano-4-[4-(iso-propylamino)piperidin-1-yl]quinoline] | 0.5% | 0.2% | 62.9% | 0.3% | 24.4% | 0.3% | 0.3% | 0.2% | 84.8% | 0.6% | 3.6% | 0.2% | 0.3% | 0.1% | pEC50 [5]: 5.00 to 5.30
